Starred links: 1 amine or outer side, 2 acyl side, 3 side chain; linkers in the order of their positions; H or OH if unused. Positions of bridges follow the written chain, without caps; N, C: chain ends. Non-standard residues stand in square brackets, D forms with d. Residues, ends and D or L forms follow the SMILES beside them. *: point of attachment. Phe(4-NH2) = Nc1ccc(C[C@H](N)C(=O)O)cc1; Phe(4-F) = N[C@@H](Cc1ccc(F)cc1)C(=O)O; γGlu = O=C(O)[C@H](CCC(=O)[*:2])N[*:1]; βAsp = O=C(O)[C@H](CC(=O)[*:2])N[*:1]; Ahp(2) = CCCCC[C@H](N)C(=O)O; NHexGly = CCCCCCNCC(=O)O; Nle = CCCC[C@H](N)C(=O)O; Aun = NCCCCCCCCCCC(=O)O; AEEA = NCCOCCOCC(=O)O; Allyl = C=CC*

The target in the first assay is T1, mouse VISTA (mVISTA) (Mus musculus, UniProt Q9D659).
T1 construct: expressed in transfected cells; host or cells: Human embryonic kidney 293T cells
T1 sequence (Q9D659 33-308): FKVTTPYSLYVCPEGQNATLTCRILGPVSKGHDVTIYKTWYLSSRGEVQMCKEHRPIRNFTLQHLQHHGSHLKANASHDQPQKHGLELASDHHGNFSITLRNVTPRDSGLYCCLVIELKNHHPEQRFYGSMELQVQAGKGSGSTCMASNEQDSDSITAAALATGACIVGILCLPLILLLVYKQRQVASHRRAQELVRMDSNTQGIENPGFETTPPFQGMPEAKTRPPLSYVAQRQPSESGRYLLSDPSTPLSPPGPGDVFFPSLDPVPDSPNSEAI
Description: Cell-Based Binding High-Content Assay For mVISTA (HC CBA mVISTA). The conditions noted are these: cell-based binding high-content assay, mVISTA; read-out: HC CBA miPr ISTA IC50. Put shortly:
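Competition of compound with a biotinylated peptide (final 2 nM, 30 min at RT) for binding to mVISTA on 293T cells, run under no-wash or wash (1 h compound preincubation then removal) formats. Readout by Alexa 647–streptavidin imaging on a high-content platform; four-parameter logistic fit gave IC50.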
Consider `CCCCCCN1CC(=O)N[C@@H](Cc2ccc(O)cc2)C(=O)N[C@@H](CC(C)C)C(=O)N[C@@H](CC(N)=O)C(=O)N[C@@H](CCCNC(=N)N)C(=O)N[C@@H](CC(C)C)C(=O)N[C@@H](CCCCC)C(=O)N2CCC[C@H]2C(=O)N[C@@H](C(C)C)C(=O)N[C@@H](CO)C(=O)N[C@H](C(=O)NCC(=O)NCCOCCOCC(=O)N[C@@H](CC(=O)O)C(=O)NCCOCCOCC(=O)NCCCCCCCCCCC(=O)O)CSCC(=O)N[C@@H](Cc2ccccc2)C(=O)N[C@@H](Cc2ccc(O)cc2)C(=O)N[C@@H](CC(=O)O)C1=O` [compound 2001] ({CH2CO}-FYD[NHexGly]YLNRL[Ahp(2)]PVSCG[AEEA]D[AEEA][Aun]-OH; thioether N-14), for which the IC50 (usually the concentration needed to halve the response being measured) came out at 19.8 nM.
For `CCCCCCN1CC(=O)N[C@@H](Cc2ccc(O)cc2)C(=O)N[C@@H](CC(C)C)C(=O)N[C@@H](CC(N)=O)C(=O)N[C@@H](CCCNC(=N)N)C(=O)N[C@@H](CC(C)C)C(=O)N[C@@H](CCCCC)C(=O)N2CCC[C@H]2C(=O)N[C@@H](C(C)C)C(=O)N[C@@H](CO)C(=O)N[C@H](C(=O)N[C@@H](CCC(=O)NCCOCCOCC(=O)N[C@@H](CC(=O)O)C(=O)NCCOCCOCC(=O)NCCCCCCCCCCC(=O)O)C(=O)O)CSCC(=O)N[C@@H](Cc2ccccc2)C(=O)N[C@@H](Cc2ccc(O)cc2)C(=O)N[C@@H](CC(=O)O)C1=O` [compound 2002] ({CH2CO}-FYD[NHexGly]YLNRL[Ahp(2)]PVSC[γGlu][AEEA]D[AEEA][Aun]-OH; thioether N-14), the IC50 worked out at 19.6 nM.
For the molecule `CCCCCCN1CC(=O)N[C@@H](Cc2ccc(O)cc2)C(=O)N[C@@H](CC(C)C)C(=O)N[C@@H](CC(N)=O)C(=O)N[C@@H](CCCNC(=N)N)C(=O)N[C@@H](CC(C)C)C(=O)N[C@@H](CCCCC)C(=O)N2CCC[C@H]2C(=O)N[C@@H](C(C)C)C(=O)N[C@@H](CO)C(=O)N[C@H](C(=O)N[C@@H](CC(=O)NCCOCCOCC(=O)N[C@@H](CC(=O)O)C(=O)NCCOCCOCC(=O)NCCCCCCCCCCC(=O)O)C(=O)O)CSCC(=O)N[C@@H](Cc2ccccc2)C(=O)N[C@@H](Cc2ccc(O)cc2)C(=O)N[C@@H](CC(=O)O)C1=O` [compound 2003] ({CH2CO}-FYD[NHexGly]YLNRL[Ahp(2)]PVSC[βAsp][AEEA]D[AEEA][Aun]-OH; thioether N-14), the IC50 was 37.8 nM.
For the molecule `CCCCCCN1CC(=O)N[C@@H](Cc2ccc(O)cc2)C(=O)N[C@@H](CC(C)C)C(=O)N[C@@H](CC(N)=O)C(=O)N[C@@H](CCCNC(=N)N)C(=O)N[C@@H](CC(C)C)C(=O)N[C@@H](CCCCC)C(=O)N2CCC[C@H]2C(=O)N[C@@H](C(C)C)C(=O)N[C@@H](CO)C(=O)N[C@H](C(=O)N[C@@H](CC(=O)O)C(=O)NCCOCCOCC(=O)N[C@@H](CC(=O)O)C(=O)NCCOCCOCC(=O)NCCCCCCCCCCC(=O)O)CSCC(=O)N[C@@H](Cc2ccccc2)C(=O)N[C@@H](Cc2ccc(O)cc2)C(=O)N[C@@H](CC(=O)O)C1=O` [compound 2004] ({CH2CO}-FYD[NHexGly]YLNRL[Ahp(2)]PVSCD[AEEA]D[AEEA][Aun]-OH; thioether N-14), the concentration for half-maximal inhibition (IC50) is 49.3 nM.

Still in this assay, the particulars now being: the 20th table, scaffold drawing 23; read-out: HC CBA mVISTA IC50.
Take `CCCCCCN1CC(=O)N[C@@H](Cc2ccc(O)cc2)C(=O)N[C@@H](CCCC)C(=O)N[C@@H](CC(N)=O)C(=O)N[C@@H](CCCNC(=N)N)C(=O)N[C@@H](CC(C)C)C(=O)N[C@@H](CCCCC)C(=O)N2CCC[C@H]2C(=O)N[C@@H](C(C)C)C(=O)N[C@@H](CO)C(=O)N[C@H](C(=O)NCC(=O)O)CSCC(=O)N[C@@H](Cc2ccc(F)cc2)C(=O)N[C@@H](Cc2ccc(O)cc2)C(=O)N[C@@H](CC(=O)O)C1=O` [compound 1462] ({CH2CO}-[Phe(4-F)]YD[NHexGly]Y[Nle]NRL[Ahp(2)]PVSCG-OH; thioether N-14): the 50% inhibitory concentration (IC50) came to 22.2 nM.
As to `CCCCCCN1CC(=O)N[C@@H](Cc2ccc(O)cc2)C(=O)N[C@@H](CCCC)C(=O)NCC(=O)N[C@@H](CCCNC(=N)N)C(=O)N[C@@H](CC(C)C)C(=O)N[C@@H](CCCCC)C(=O)N2CCC[C@H]2C(=O)N[C@@H](C(C)C)C(=O)N[C@@H](CC(=O)O)C(=O)N[C@H](C(=O)NCC(=O)O)CSCC(=O)N[C@@H](Cc2ccc(N)cc2)C(=O)N[C@@H](Cc2ccc(O)cc2)C(=O)N[C@@H](CC(=O)O)C1=O` [compound 1464] ({CH2CO}-[Phe(4-NH2)]YD[NHexGly]Y[Nle]GRL[Ahp(2)]PVDCG-OH; thioether N-14), the IC50 stood at 31.4 nM.
As to `CCCCCCN1CC(=O)N[C@@H](Cc2ccc(O)cc2)C(=O)N[C@@H](CCCC)C(=O)N[C@H](CC(N)=O)C(=O)N[C@@H](CCCNC(=N)N)C(=O)N[C@@H](CC(C)C)C(=O)N[C@@H](CCCCC)C(=O)N2CCC[C@H]2C(=O)N[C@@H](C(C)C)C(=O)N[C@@H](CO)C(=O)N[C@H](C(=O)NCC(=O)O)CSCC(=O)N[C@@H](Cc2c[nH]c3ccccc23)C(=O)N[C@@H](Cc2ccc(O)cc2)C(=O)N[C@@H](CC(=O)O)C1=O` [compound 1471] ({CH2CO}-WYD[NHexGly]Y[Nle][dN]RL[Ahp(2)]PVSCG-OH; thioether N-14), the IC50 stood at 32.9 nM.
As for `CCCCCCN1CC(=O)N[C@@H](Cc2ccc(O)cc2)C(=O)N[C@@H](CCCC)C(=O)NCC(=O)N[C@@H](CCCNC(=N)N)C(=O)N[C@@H](CC(C)C)C(=O)N[C@@H](CCCCC)C(=O)N2CCC[C@H]2C(=O)N[C@@H](C(C)C)C(=O)N[C@@H](CC(=O)O)C(=O)N[C@H](C(=O)NCC(=O)O)CSCC(=O)N[C@@H](Cc2ccc(O)cc2)C(=O)N[C@@H](Cc2ccccc2)C(=O)N[C@@H](CC(=O)O)C1=O` [compound 1472] ({CH2CO}-YFD[NHexGly]Y[Nle]GRL[Ahp(2)]PVDCG-OH; thioether N-14), the 50% inhibitory concentration (IC50) is 15.5 nM.
With `CCCCCCN1CC(=O)N[C@@H](Cc2ccc(O)cc2)C(=O)N[C@@H](CCCC)C(=O)N[C@@H](CC(N)=O)C(=O)N[C@@H](CCCNC(=N)N)C(=O)N[C@@H](CC(C)C)C(=O)N[C@@H](CCCCC)C(=O)N2CCC[C@H]2C(=O)N[C@@H](C(C)C)C(=O)N[C@@H](CO)C(=O)N[C@H](C(=O)NCC(=O)O)CSCC(=O)N[C@@H](Cc2ccc(O)cc2)C(=O)N[C@@H](Cc2ccc(O)cc2)C(=O)N[C@@H](CC(=O)O)C1=O` [compound 1473] ({CH2CO}-YYD[NHexGly]Y[Nle]NRL[Ahp(2)]PVSCG-OH; thioether N-14), the 50% inhibitory concentration (IC50) was determined as 3.2 nM.
For `CCCCCCN1CC(=O)N[C@@H](Cc2ccc(O)cc2)C(=O)N[C@@H](CCCC)C(=O)N[C@@H](CC(N)=O)C(=O)N[C@@H](CCCNC(=N)N)C(=O)N[C@@H](CC(C)C)C(=O)N[C@@H](CCCCC)C(=O)N2CCC[C@H]2C(=O)N[C@@H](C(C)C)C(=O)N[C@@H](CO)C(=O)N[C@H](C(=O)NCC(N)=O)CSCC(=O)N[C@@H](Cc2ccc(O)cc2)C(=O)N[C@@H](Cc2ccc(O)cc2)C(=O)N[C@@H](CC(=O)O)C1=O` [compound 1474] ({CH2CO}-YYD[NHexGly]Y[Nle]NRL[Ahp(2)]PVSCG-NH2; thioether N-14), the IC50 worked out at 40.4 nM.
Still for that read-out and setting: to `C=CCOc1ccc(C[C@@H]2NC(=O)CSC[C@@H](C(=O)NCC(N)=O)NC(=O)[C@H](CC(=O)O)NC(=O)[C@H](C(C)C)NC(=O)[C@@H]3CCCN3C(=O)[C@H](CCCCC)NC(=O)[C@H](CC(C)C)NC(=O)[C@H](CCCNC(=N)N)NC(=O)CNC(=O)[C@H](C(C)C)NC(=O)[C@H](Cc3ccc(O)cc3)NC(=O)CN(CCCCCC)C(=O)[C@H](CC(=O)O)NC(=O)[C@H](Cc3ccc(O)cc3)NC2=O)cc1` [compound 1475] ({CH2CO}-Y(Allyl)YD[NHexGly]YVGRL[Ahp(2)]PVDCG-NH2; thioether N-14) belongs 10.7 nM.
For `CCCCCCN1CC(=O)N[C@@H](Cc2ccc(O)cc2)C(=O)N[C@@H](CCCC)C(=O)N[C@@H](CC(N)=O)C(=O)N[C@@H](CCCNC(=N)N)C(=O)N[C@@H](CC(C)C)C(=O)N[C@@H](CCCCC)C(=O)N2CCC[C@H]2C(=O)N[C@@H](C(C)C)C(=O)N[C@@H](CC(=O)O)C(=O)N[C@H](C(=O)NCC(=O)O)CSCC(=O)N[C@@H](Cc2ccc(OCC)cc2)C(=O)N[C@@H](Cc2c[nH]c3ccccc23)C(=O)N[C@@H](CC(=O)O)C1=O` [compound 1476] ({CH2CO}-Y(Et)WD[NHexGly]Y[Nle]NRL[Ahp(2)]PVDCG-OH; thioether N-14), the IC50 stood at 36.5 nM.
In the case of `CCCCCCN1CC(=O)N[C@@H](Cc2ccc(O)cc2)C(=O)N[C@@H](C(C)C)C(=O)NCC(=O)N[C@@H](CCCNC(=N)N)C(=O)N[C@@H](CC(C)C)C(=O)N[C@@H](CCCCC)C(=O)N2CCC[C@H]2C(=O)N[C@@H](C(C)C)C(=O)N[C@@H](CC(=O)O)C(=O)N[C@H](C(=O)NCC(N)=O)CSCC(=O)N[C@@H](Cc2ccc(OC)cc2)C(=O)N[C@@H](Cc2ccc(O)cc2)C(=O)N[C@@H](CC(=O)O)C1=O` [compound 1477] ({CH2CO}-Y(Me)YD[NHexGly]YVGRL[Ahp(2)]PVDCG-NH2; thioether N-14), the IC50 came out at 49.2 nM.
The same measure, in the same setting: to `CCCCCCN1CC(=O)N[C@@H](Cc2ccc(O)cc2)C(=O)N[C@@H](C(C)C)C(=O)NCC(=O)N[C@@H](CCCNC(=N)N)C(=O)N[C@@H](CC(C)C)C(=O)N[C@@H](CCCCC)C(=O)N2CCC[C@H]2C(=O)N[C@@H](C(C)C)C(=O)N[C@@H](CC(=O)O)C(=O)N[C@H](C(=O)NCC(=O)O)CSCC(=O)N[C@@H](Cc2ccc(OC)cc2)C(=O)N[C@@H](Cc2ccc(O)cc2)C(=O)N[C@@H](CC(=O)O)C1=O` [compound 1478] ({CH2CO}-Y(Me)YD[NHexGly]YVGRL[Ahp(2)]PVDCG-OH; thioether N-14) belongs 12 nM.

Values taken from patent publication US20240218022A1, “ANTI-VISTA MACROCYCLIC PEPTIDES AND COMPOSITIONS” (BRISTOL-MYERS SQUIBB COMPANY, priority 2022, published 2024).
